{
  "source": "PubChem BioAssay AID1259407",
  "about": "(Chemical Carcinogenesis Research Information System (CCRIS), 2018)",
  "system": "CCRIS mutagenicity, Ames/micronucleus/aberration tests",
  "assay": "CCRIS mutagenicity studies",
  "note": "The source made the active and inactive calls. How the calls were made is not given here.",
  "data": [
    {"compound": "ClCC(Cl)Cl", "values": [
      {"measurement": "mutagenic call", "setting": "Test System: AMES SALMONELLA TYPHIMURIUM, Strain/Indicator: TA97, Metabolic Activation: HAMSTER, LIVER, S-9, AROCLOR 1254 (10%), Method: PREINCUBATION", "value": "inactive; negative"},
      {"measurement": "mutagenic call", "setting": "Test System: AMES SALMONELLA TYPHIMURIUM, Strain/Indicator: TA97, Metabolic Activation: HAMSTER, LIVER, S-9, AROCLOR 1254 (30%), Method: PREINCUBATION", "value": "inactive; negative"},
      {"measurement": "mutagenic call", "setting": "Test System: AMES SALMONELLA TYPHIMURIUM, Strain/Indicator: TA97, Metabolic Activation: NONE, Method: PREINCUBATION", "value": "inactive; negative"},
      {"measurement": "mutagenic call", "setting": "Test System: AMES SALMONELLA TYPHIMURIUM, Strain/Indicator: TA97, Metabolic Activation: NONE, Method: STANDARD PLATE", "value": "active; positive"},
      {"measurement": "mutagenic call", "setting": "Test System: AMES SALMONELLA TYPHIMURIUM, Strain/Indicator: TA97, Metabolic Activation: RAT, LIVER, S-9, AROCLOR 1254 (10%), Method: PREINCUBATION", "value": "inactive; negative"},
      {"measurement": "mutagenic call", "setting": "Test System: AMES SALMONELLA TYPHIMURIUM, Strain/Indicator: TA97, Metabolic Activation: RAT, LIVER, S-9, AROCLOR 1254 (30%), Method: PREINCUBATION", "value": "inactive; negative"},
      {"measurement": "mutagenic call", "setting": "Test System: AMES SALMONELLA TYPHIMURIUM, Strain/Indicator: TA97, Metabolic Activation: RAT, LIVER, S-9, AROCLOR 1254, Method: STANDARD PLATE", "value": "active; positive"},
      {"measurement": "mutagenic call", "setting": "Test System: AMES SALMONELLA TYPHIMURIUM, Strain/Indicator: TA98, Metabolic Activation: HAMSTER, LIVER, S-9, AROCLOR 1254 (10%), Method: PREINCUBATION", "value": "inactive; negative"},
      {"measurement": "mutagenic call", "setting": "Test System: AMES SALMONELLA TYPHIMURIUM, Strain/Indicator: TA98, Metabolic Activation: HAMSTER, LIVER, S-9, AROCLOR 1254 (30%), Method: PREINCUBATION", "value": "inactive; negative"},
      {"measurement": "mutagenic call", "setting": "Test System: AMES SALMONELLA TYPHIMURIUM, Strain/Indicator: TA98, Metabolic Activation: NONE, Method: PREINCUBATION", "value": "inactive; negative"},
      {"measurement": "mutagenic call", "setting": "Test System: AMES SALMONELLA TYPHIMURIUM, Strain/Indicator: TA98, Metabolic Activation: NONE, Method: STANDARD PLATE", "value": "inactive; negative"},
      {"measurement": "mutagenic call", "setting": "Test System: AMES SALMONELLA TYPHIMURIUM, Strain/Indicator: TA98, Metabolic Activation: RAT, LIVER, S-9, AROCLOR 1254 (10%), Method: PREINCUBATION", "value": "inactive; negative"},
      {"measurement": "mutagenic call", "setting": "Test System: AMES SALMONELLA TYPHIMURIUM, Strain/Indicator: TA98, Metabolic Activation: RAT, LIVER, S-9, AROCLOR 1254 (30%), Method: PREINCUBATION", "value": "inactive; negative"},
      {"measurement": "mutagenic call", "setting": "Test System: AMES SALMONELLA TYPHIMURIUM, Strain/Indicator: TA98, Metabolic Activation: RAT, LIVER, S-9, AROCLOR 1254, Method: STANDARD PLATE", "value": "inactive; negative"},
      {"measurement": "mutagenic call", "setting": "Test System: AMES SALMONELLA TYPHIMURIUM, Strain/Indicator: TA100, Metabolic Activation: HAMSTER, LIVER, S-9, AROCLOR 1254 (10%), Method: PREINCUBATION", "value": "inactive; negative"},
      {"measurement": "mutagenic call", "setting": "Test System: AMES SALMONELLA TYPHIMURIUM, Strain/Indicator: TA100, Metabolic Activation: HAMSTER, LIVER, S-9, AROCLOR 1254 (30%), Method: PREINCUBATION", "value": "inactive; negative"},
      {"measurement": "mutagenic call", "setting": "Test System: AMES SALMONELLA TYPHIMURIUM, Strain/Indicator: TA100, Metabolic Activation: NONE, Method: PREINCUBATION", "value": "inactive; negative"},
      {"measurement": "mutagenic call", "setting": "Test System: AMES SALMONELLA TYPHIMURIUM, Strain/Indicator: TA100, Metabolic Activation: NONE, Method: STANDARD PLATE", "value": "active; positive"},
      {"measurement": "mutagenic call", "setting": "Test System: AMES SALMONELLA TYPHIMURIUM, Strain/Indicator: TA100, Metabolic Activation: RAT, LIVER, S-9, AROCLOR 1254 (10%), Method: PREINCUBATION", "value": "inactive; negative"},
      {"measurement": "mutagenic call", "setting": "Test System: AMES SALMONELLA TYPHIMURIUM, Strain/Indicator: TA100, Metabolic Activation: RAT, LIVER, S-9, AROCLOR 1254 (30%), Method: PREINCUBATION", "value": "inactive; negative"},
      {"measurement": "mutagenic call", "setting": "Test System: AMES SALMONELLA TYPHIMURIUM, Strain/Indicator: TA100, Metabolic Activation: RAT, LIVER, S-9, AROCLOR 1254, Method: STANDARD PLATE", "value": "inactive; negative"},
      {"measurement": "mutagenic call", "setting": "Test System: AMES SALMONELLA TYPHIMURIUM, Strain/Indicator: TA104, Metabolic Activation: NONE, Method: STANDARD PLATE", "value": "inactive; negative"},
      {"measurement": "mutagenic call", "setting": "Test System: AMES SALMONELLA TYPHIMURIUM, Strain/Indicator: TA104, Metabolic Activation: RAT, LIVER, S-9, AROCLOR 1254, Method: STANDARD PLATE", "value": "active; positive"},
      {"measurement": "mutagenic call", "setting": "Test System: AMES SALMONELLA TYPHIMURIUM, Strain/Indicator: TA1535, Metabolic Activation: HAMSTER, LIVER, S-9, AROCLOR 1254 (10%), Method: PREINCUBATION", "value": "inactive; negative"},
      {"measurement": "mutagenic call", "setting": "Test System: AMES SALMONELLA TYPHIMURIUM, Strain/Indicator: TA1535, Metabolic Activation: HAMSTER, LIVER, S-9, AROCLOR 1254 (30%), Method: PREINCUBATION", "value": "inactive; negative"},
      {"measurement": "mutagenic call", "setting": "Test System: AMES SALMONELLA TYPHIMURIUM, Strain/Indicator: TA1535, Metabolic Activation: NONE, Method: PREINCUBATION", "value": "inactive; negative"},
      {"measurement": "mutagenic call", "setting": "Test System: AMES SALMONELLA TYPHIMURIUM, Strain/Indicator: TA1535, Metabolic Activation: RAT, LIVER, S-9, AROCLOR 1254 (10%), Method: PREINCUBATION", "value": "inactive; negative"},
      {"measurement": "mutagenic call", "setting": "Test System: AMES SALMONELLA TYPHIMURIUM, Strain/Indicator: TA1535, Metabolic Activation: RAT, LIVER, S-9, AROCLOR 1254 (30%), Method: PREINCUBATION", "value": "inactive; negative"},
      {"measurement": "mutagenic call", "setting": "Test System: AMES SALMONELLA TYPHIMURIUM, Strain/Indicator: TA1537, Metabolic Activation: HAMSTER, LIVER, S-9, AROCLOR 1254 (10%), Method: PREINCUBATION", "value": "inactive; negative"},
      {"measurement": "mutagenic call", "setting": "Test System: AMES SALMONELLA TYPHIMURIUM, Strain/Indicator: TA1537, Metabolic Activation: HAMSTER, LIVER, S-9, AROCLOR 1254 (30%), Method: PREINCUBATION", "value": "inactive; negative"},
      {"measurement": "mutagenic call", "setting": "Test System: AMES SALMONELLA TYPHIMURIUM, Strain/Indicator: TA1537, Metabolic Activation: NONE, Method: PREINCUBATION", "value": "inactive; negative"},
      {"measurement": "mutagenic call", "setting": "Test System: AMES SALMONELLA TYPHIMURIUM, Strain/Indicator: TA1537, Metabolic Activation: RAT, LIVER, S-9, AROCLOR 1254 (10%), Method: PREINCUBATION", "value": "inactive; negative"},
      {"measurement": "mutagenic call", "setting": "Test System: AMES SALMONELLA TYPHIMURIUM, Strain/Indicator: TA1537, Metabolic Activation: RAT, LIVER, S-9, AROCLOR 1254 (30%), Method: PREINCUBATION", "value": "inactive; negative"}
    ]},
    {"compound": "CC1(c2ccc(Oc3ccccc3)cc2)OC(=O)N(Nc2ccccc2)C1=O", "note": "(centres undefined)", "values": [
      {"measurement": "mutagenic call", "setting": "End Point: In vitro chromosomal aberrations, Test System: Human (male and female) lymphocytes, Metabolic Activation: None", "value": "inactive; negative"},
      {"measurement": "mutagenic call", "setting": "End Point: In vitro chromosomal aberrations, Test System: Human (male and female) lymphocytes, Metabolic Activation: S-9", "value": "inactive; negative"},
      {"measurement": "mutagenic call", "setting": "End Point: In vivo micronucleus, Test System: Bone marrow polychromatic erythrocytes, Species: Mouse, Strain/Sex: Crl:CD-1(ICR)BR/Male and female", "value": "inactive; negative"},
      {"measurement": "mutagenic call", "setting": "End Point: UDS, Species: Rat, Strain/Sex: Sprague-Dawley Crl:CD BR/Male, Route: Oral", "value": "inactive; negative"},
      {"measurement": "mutagenic call", "setting": "Test System: Ames Salmonella typhimurium, Strain/Indicator: TA97, Metabolic Activation: None, Method: Plate incorporation", "value": "inactive; negative"},
      {"measurement": "mutagenic call", "setting": "Test System: Ames Salmonella typhimurium, Strain/Indicator: TA97, Metabolic Activation: Rat, Liver, S-9, Method: Plate incorporation", "value": "inactive; negative"},
      {"measurement": "mutagenic call", "setting": "Test System: Ames Salmonella typhimurium, Strain/Indicator: TA98, Metabolic Activation: None, Method: Plate incorporation", "value": "inactive; negative"},
      {"measurement": "mutagenic call", "setting": "Test System: Ames Salmonella typhimurium, Strain/Indicator: TA98, Metabolic Activation: Rat, Liver, S-9, Method: Plate incorporation", "value": "inactive; negative"},
      {"measurement": "mutagenic call", "setting": "Test System: Ames Salmonella typhimurium, Strain/Indicator: TA100, Metabolic Activation: None, Method: Plate incorporation", "value": "inactive; negative"},
      {"measurement": "mutagenic call", "setting": "Test System: Ames Salmonella typhimurium, Strain/Indicator: TA100, Metabolic Activation: Rat, Liver, S-9, Method: Plate incorporation", "value": "inactive; negative"},
      {"measurement": "mutagenic call", "setting": "Test System: Ames Salmonella typhimurium, Strain/Indicator: TA1535, Metabolic Activation: None, Method: Plate incorporation", "value": "inactive; negative"},
      {"measurement": "mutagenic call", "setting": "Test System: Ames Salmonella typhimurium, Strain/Indicator: TA1535, Metabolic Activation: Rat, Liver, S-9, Method: Plate incorporation", "value": "inactive; negative"},
      {"measurement": "mutagenic call", "setting": "Test System: Chinese hamster ovary cells, Strain/Indicator: CHO-K1-BH4 (HGPRT), Metabolic Activation: None, Method: Suspension/plate?", "value": "inactive; negative"},
      {"measurement": "mutagenic call", "setting": "Test System: Chinese hamster ovary cells, Strain/Indicator: CHO-K1-BH4 (HGPRT), Metabolic Activation: Rat, Liver, S-9, Method: Suspension/plate?", "value": "inactive; negative"},
      {"measurement": "mutagenic call", "setting": "Test System: E. coli, Strain/Indicator: WP2 uvrA (pKM101), Metabolic Activation: None, Method: Plate incorporation", "value": "inactive; negative"},
      {"measurement": "mutagenic call", "setting": "Test System: E. coli, Strain/Indicator: WP2 uvrA (pKM101), Metabolic Activation: Rat, Liver, S-9, Method: Plate incorporation", "value": "inactive; negative"}
    ]}
  ]
}
